Consider two compounds from article PMC9822553 (iScience, 2023).

In data set [1] the test system is A549-ACE2 cells.
Data set [2] concerns Vero cells.
For data set [3], the system named is SARS-CoV-2 Omicron. It is filed as cell-based.
In data set [4] the test system is SARS-CoV-2 Delta. It is filed as cell-based.

For `CCN(CCO)CCCC(C)Nc1ccnc2cc(Cl)ccc12` (stereo not shown) [hydroxychloroquine], the drug-induced phospholipidosis result in data set [1] and in data set [2] was “considerable phospholipidosis” in each case.
`Cc1cc(C)nc(NC(=S)N2CCN(Cc3ccc(C(F)(F)F)cc3)CC2)c1` [NCT-503]: the “inhibition of Omicron-induced caspase 3/7 activation” value in data set [3] is listed as “inhibited”. For the same compound, the “effect on SARS-CoV-2 replication in ALI HBE cultures” value in data set [4] is listed as “inhibited SARS-CoV-2 replication”.
